Experimental data from the supplement of paper PMC10307832.

Assays:
Assay in all cases: relative viability (nuclei count vs DMSO), 5 days (fraction); higher = more cells survive
[1] = compound: CC(C)CCN1c2nc(Nc3cc(F)c(O)c(F)c3)ncc2N(C)C(=O)C1C [BI-D1870] + CCNC(=O)c1noc(-c2cc(C(C)C)c(O)cc2O)c1-c1ccc(CN2CCOCC2)cc1 [Luminespib] (partner 0.01 µM)
Outline: (§1)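 Values are medians from duplicate plates. Each reflects relative viability, defined as the nuclei count of treated wells over that of vehicle wells. Lung cancer cell lines in 1536-well plates were pin-tool dosed one day after seeding with one drug alone or with a fixed anchor-drug dose plus five library-drug doses (not always all listed) in √10 steps, then fixed, stained and imaged at 4× after 5 days.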

[2] = compound: CC(C)CCN1c2nc(Nc3cc(F)c(O)c(F)c3)ncc2N(C)C(=O)C1C [BI-D1870] + Nc1nc2[nH]cc(CCc3ccc(C(=O)N[C@@H](CCC(=O)O)C(=O)O)cc3)c2c(=O)[nH]1 [Pemetrexed] (partner 0.2 µM)
Outline: as §1

[3] = compound: CC(C)CCN1c2nc(Nc3cc(F)c(O)c(F)c3)ncc2N(C)C(=O)C1C [BI-D1870] + C[C@@H](Oc1cc(-c2cnn(C3CCNCC3)c2)cnc1N)c1c(Cl)ccc(F)c1Cl [Crizotinib] (partner 1 µM)
Outline: as §1

[4] = compound: O=c1ncccn1[C@@H]1O[C@H](CO)[C@@H](O)[C@H]1O [Zebularine] + COc1cccc2cc(-c3nc([C@H]4CC[C@H](C(=O)O)CC4)n4ncnc(N)c34)[nH]c12 [OSI-027] (partner 0.5 µM)
Outline: as §1

Cell Line | relative viability ([1]; first compound 0.04 µM) | relative viability ([1]; first compound 0.1265 µM) | relative viability ([1]; first compound 0.4 µM) | relative viability ([1]; first compound 1.265 µM) | relative viability ([1]; first compound 4 µM) | relative viability ([2]; first compound 0.04 µM) | relative viability ([2]; first compound 0.1265 µM) | relative viability ([2]; first compound 0.4 µM) | relative viability ([2]; first compound 1.265 µM) | relative viability ([2]; first compound 4 µM) | relative viability ([3]; first compound 0.04 µM) | relative viability ([3]; first compound 0.1265 µM) | relative viability ([3]; first compound 0.4 µM) | relative viability ([3]; first compound 1.265 µM) | relative viability ([3]; first compound 4 µM) | relative viability ([4]; first compound 1 µM) | relative viability ([4]; first compound 3.162 µM) | relative viability ([4]; first compound 10 µM) | relative viability ([4]; first compound 31.62 µM) | relative viability ([4]; first compound 100 µM)
NCI-H23 | 0.237 | 0.222 | 0.232 | 0.217 | 0.24 | 1.12 | 0.585 | 0.602 | 0.684 | 0.316 | 0.527 | 0.424 | 0.509 | 0.667 | 0.559 | 0.674 | 0.55 | 0.368 | 0.628 | 0.518
NCI-H322M | 0.956 | 0.84 | 0.884 | 0.88 | 0.774 | 0.632 | 0.564 | 0.596 | 0.59 | 0.517 | 0.924 | 0.822 | 0.795 | 1.05 | 0.651 | 0.524 | 0.531 | 0.47 | 0.5 | 0.521
NCI-H358 | 0.441 | 0.158 | 0.256 | 0.313 | 0.319 | 0.184 | 0.168 | 0.153 | 0.164 | 0.164 | 0.772 | 0.598 | 0.475 | 0.456 | 0.213 | 0.862 | 0.474 | 0.378 | 0.286 | 0.177
NCI-H441 | 0.474 | 0.267 | 0.359 | 0.394 | 0.412 | 0.262 | 0.279 | 0.245 | 0.237 | 0.265 | 1.01 | 0.696 | 0.925 | 0.738 | 0.448 | 0.817 | 0.595 | 0.401 | 0.25 | 0.234
NCI-H460 | 0.0324 | 0.0316 | 0.0261 | 0.0295 | 0.0315 | 0.0638 | 0.0586 | 0.0621 | 0.0582 | 0.0624 | 1.2 | 0.76 | 0.84 | 0.926 | 0.14 | 0.971 | 0.707 | 0.336 | 0.18 | 0.0887
NCI-H520 | 0.207 | 0.209 | 0.243 | 0.22 | 0.194 | 0.757 | 0.673 | 0.636 | 0.416 | 0.267 | 1.05 | 0.687 | 0.766 | 0.824 | 0.476 | 0.281 | 0.23 | 0.266 | 0.298 | 0.239
NCI-H596 | 1.16 | 0.985 | 1.27 | 0.786 | 0.915 | 0.458 | 0.47 | 0.45 | 0.576 | 0.454 | 0.97 | 0.982 | 0.981 | 1.01 | 1.16 | 0.696 | 0.78 | 0.593 | 0.708 | 0.559
NCI-H647 | 0.158 | 0.0954 | 0.206 | 0.31 | 0.107 | 0.155 | 0.162 | 0.192 | 0.218 | 0.127 | 1.05 | 1.03 | 1.12 | 1.2 | 0.799 | 0.717 | 0.676 | 0.363 | 0.186 | 0.16
NCI-H650 | 0.867 | 0.641 | 0.732 | 0.918 | 0.481 | 0.848 | 0.837 | 0.96 | 0.896 | 0.802 | 0.672 | 0.667 | 0.695 | 0.662 | 0.405 | 0.54 | 0.524 | 0.437 | 0.356 | 0.26
NCI-H661 | 0.961 | 0.935 | 0.988 | 1.01 | 0.877 | 0.913 | 0.906 | 0.931 | 0.928 | 0.857 | 1.24 | 0.963 | 0.973 | 1.05 | 0.902 | 0.794 | 0.671 | 0.591 | 0.764 | 0.627
NCI-H838 | 0.309 | 0.343 | 0.236 | 0.295 | 0.319 | 0.267 | 0.249 | 0.31 | 0.248 | 0.262 | 0.902 | 0.715 | 0.926 | 0.949 | 0.932 | 0.405 | 0.377 | 0.355 | 0.348 | 0.258
NCI-H1355 | 0.802 | 0.675 | 0.649 | 0.737 | 0.573 | 1.04 | 0.998 | 1.03 | 1.15 | 0.963 | 1.12 | 0.985 | 1.1 | 1.08 | 1.11 | 0.435 | 0.388 | 0.357 | 0.494 | 0.381
NCI-H1437 | 1.17 | 1.06 | 1.11 | 1.11 | 0.855 | 0.335 | 0.303 | 0.323 | 0.355 | 0.338 | 1.04 | 0.811 | 0.873 | 0.794 | 0.677 | 0.926 | 0.933 | 0.761 | 0.859 | 0.611
NCI-H1563 | 0.512 | 0.481 | 0.502 | 0.521 | 0.526 | 0.869 | 0.793 | 0.776 | 0.776 | 0.841 | 0.878 | 0.893 | 0.842 | 0.905 | 0.905 | 0.81 | 0.776 | 0.572 | 0.89 | 0.76
